Data: patent publication US6416735B1 (priority 1999, dated 2002)
Counter-ions that a name gives are not always drawn. Like-named read-outs stand apart in the source and are kept apart here.

Legend:
[1] = biological target: α7 nAChR (Rattus norvegicus, UniProt Q05941); assay: biochemical; type: binding
[2] = in vivo; cited from earlier work
[3] = biological target: α4β2 nAChRs (Rattus norvegicus, UniProt P09483+P12390); assay: biochemical; type: binding
[4] = read-out: KI, inhibition of [^125I]Iodo-MLA binding

Sequence of α7 nAChR (Q05941 23-502): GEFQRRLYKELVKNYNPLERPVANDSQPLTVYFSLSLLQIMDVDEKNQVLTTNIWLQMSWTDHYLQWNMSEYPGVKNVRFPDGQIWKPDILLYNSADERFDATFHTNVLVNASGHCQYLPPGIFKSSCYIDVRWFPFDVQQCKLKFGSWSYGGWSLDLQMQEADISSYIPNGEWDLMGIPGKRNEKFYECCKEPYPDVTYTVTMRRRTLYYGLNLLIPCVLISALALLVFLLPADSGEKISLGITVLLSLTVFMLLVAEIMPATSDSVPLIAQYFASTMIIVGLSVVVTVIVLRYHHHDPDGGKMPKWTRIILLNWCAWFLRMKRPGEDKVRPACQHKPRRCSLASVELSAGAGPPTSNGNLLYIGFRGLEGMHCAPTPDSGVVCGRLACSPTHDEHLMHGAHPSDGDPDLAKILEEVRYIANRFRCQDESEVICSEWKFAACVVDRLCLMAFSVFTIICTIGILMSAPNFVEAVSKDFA
Sequence of α4β2 nAChRs (P12390 25-500): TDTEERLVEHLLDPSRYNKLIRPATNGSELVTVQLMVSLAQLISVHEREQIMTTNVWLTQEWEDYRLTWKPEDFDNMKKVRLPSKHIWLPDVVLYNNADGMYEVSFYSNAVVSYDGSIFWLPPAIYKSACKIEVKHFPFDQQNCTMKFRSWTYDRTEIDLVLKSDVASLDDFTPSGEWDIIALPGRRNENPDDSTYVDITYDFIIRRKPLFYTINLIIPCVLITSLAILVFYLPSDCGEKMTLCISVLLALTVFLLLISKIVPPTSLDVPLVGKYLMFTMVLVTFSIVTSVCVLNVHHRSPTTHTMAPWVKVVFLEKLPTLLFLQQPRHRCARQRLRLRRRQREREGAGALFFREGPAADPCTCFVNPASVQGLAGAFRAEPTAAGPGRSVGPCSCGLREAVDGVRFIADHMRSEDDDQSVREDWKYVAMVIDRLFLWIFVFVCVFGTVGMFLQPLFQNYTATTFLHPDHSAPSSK
Sequence of α4β2 nAChRs (P09483 31-630): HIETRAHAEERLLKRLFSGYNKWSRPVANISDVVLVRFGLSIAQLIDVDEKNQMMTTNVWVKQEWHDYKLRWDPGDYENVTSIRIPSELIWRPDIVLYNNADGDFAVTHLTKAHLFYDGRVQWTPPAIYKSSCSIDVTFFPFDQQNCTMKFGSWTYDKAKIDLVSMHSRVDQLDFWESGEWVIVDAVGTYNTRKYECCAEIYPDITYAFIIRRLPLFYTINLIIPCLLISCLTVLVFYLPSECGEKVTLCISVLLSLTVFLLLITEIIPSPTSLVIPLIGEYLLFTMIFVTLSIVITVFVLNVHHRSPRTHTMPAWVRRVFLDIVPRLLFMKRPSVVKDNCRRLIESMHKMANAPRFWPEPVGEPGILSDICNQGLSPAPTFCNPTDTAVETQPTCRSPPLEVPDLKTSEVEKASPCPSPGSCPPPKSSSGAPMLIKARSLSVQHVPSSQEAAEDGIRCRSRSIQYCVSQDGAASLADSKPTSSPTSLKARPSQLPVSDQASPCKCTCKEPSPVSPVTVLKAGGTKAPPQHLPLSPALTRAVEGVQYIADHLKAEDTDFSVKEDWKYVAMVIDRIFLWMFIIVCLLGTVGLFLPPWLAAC

CCN1CC2(COC(=O)c3cc(I)ccc3N3C(=O)CC(C)C3=O)CCC(OC)C34C5CC6C(OC)CC(O)(C5C6OC)C(O)(C(OC)C23)C14 (stereo not shown) (as salt: citrate) [iodo-MLA, Iodo-methyllycaconitine]
melting point: 115 to 116 °C

CN1CCCC1c1cccnc1 (single isomer, unassigned; (-)) [(-)-Nicotine]
displacing [^125I]iodo-MLA (in words) [1]: weak or ineffective

C(=Cc1ccccc1)C=C1CCCN=C1c1cccnc1 [3-Cinnamylidene-anabasine]
Ki [1, 4]: 15.3 ± 2 nM

CO[C@H]1CC=C2CCN3CCC4=C(CC(=O)OC4)[C@]23C1 [Dihydro-β-erythroidine]
displacing [^125I]iodo-MLA (in words) [1]: weak or ineffective
Ki [1, 4]: > 10000 nM

CCN1C[C@]2(COC(=O)c3ccccc3N3C(=O)C[C@H](C)C3=O)CC[C@H](OC)[C@@]34[C@@H]5C[C@H]6[C@H](OC)[C@@H]5[C@](O)(C[C@@H]6OC)[C@@](O)([C@@H](OC)[C@H]23)[C@@H]14 [MLA, Methyllycaconitine]
crossing of the blood-brain barrier [2]: crosses the blood-brain barrier

CNC1(C)C2CCC(C2)C1(C)C (stereo not shown) [Mecamylamine]
Ki [1]: > 10000 nM
displacing [^125I]iodo-MLA (in words) [1]: weak or ineffective

CCN1CC2(COC(=O)c3cc(I)ccc3N3C(=O)CC(C)C3=O)CCC(OC)C34C5CC6C(OC)CC(O)(C5C6OC)C(O)(C(OC)C23)C14 (stereo not shown) [iodo-MLA, Iodo-methyllycaconitine]
Ki [3]: > 1000 nM
affinity at α4β2 nAChRs (in words) [3]: poor affinity

α-Bungarotoxin
Ki for displacing [^125I]iodo-MLA (in words) [1]: low nanomolar range
Ki [1, 4]: 2 ± 0.1 nM
crossing of the blood-brain barrier [2]: does not cross the blood-brain barrier
